Results reported in patent publication US5262439A (priority 1992, dated 1993).
One block for each compound: values may come before it.

Assays:
Solubility = format: physicochemical
Method: (§1) The product was purified by silicic acid column chromatography using increasing amounts of ether in hexane. The purified product gave a single spot on TLC (Rf 0.18) distinct from the parent compound (Rf 0.68). Upon alkaline hydrolysis, the compound yielded free probucol.
More than 96% of the labeled derivative readily went into the solution as the sodium salt and when incubated with macrophages was effectively taken up by the cells.

[1] = test system: LDL incubated with mouse peritoneal macrophages; experiment: Ability of macrophages to oxidize LDL after preincubation with probucol or diglutaryl probucol (TBARS); format: cell-based
Method: (§2) After 48 hours the cells were washed 3 times with 3 ml of Ham's F-10 and then subjected to incubation with ^125 I-LDL (1100 μg/ml) in 2 ml of Ham's F-10 for 20 hours. TBARS and subsequent macrophage degradation were determined. The results are averages from a triplicate determination from a representative set.
(§3) After several washings with Ham's F-10, the cells were then incubated with 200 μg of ^125 I-LDL in 2 ml. of Ham's F-10 for 24 hours. […] However, because the probucol was obviously not in solution and might remain absorbed to the cell surface even after washing, it is possible that residual probucol on the cell surface accounted for the apparent protection during the second incubation, i.e., probucol from the cell surface might transfer into the LDL during the first part of the second incubation.
(§4) Then the cells were thoroughly washed to remove any extracellular inhibitors. Specifically, they were washed three times with 3 ml of F-10 containing 10% fetal calf serum and then incubated with labeled LDL for an additional 24 hours. […] The values given are from a typical experiment from three or more separate experiments.

endothelial cells [2] = experiment: Uptake of ^14 C-labeled water-soluble derivative by endothelial cells; format: cell-based; details: 5 nmol added, 3 hours at 37° C., four individual cell incubations
Method: (§5) The cells were then washed three times with DME. […] The cells were dissolved in 1 ml of 0.01% Triton X-100 before the determination of radioactivity. Values for macrophages represent averages of duplicate determinations from one of two separate trials. Values for endothelial cells are from four individual cell incubations.

[3] = test system: LDL incubated with endothelial cells (EC); experiment: Ability of endothelial cells (EC) to induce LDL oxidation after pretreatment (TBARS); format: cell-based; details: Set A, 3 hours at 37° C., LDL 24 hours
Method: as §4

LDL [4] = experiment: Subsequent copper modification of LDL recovered from pretreated endothelial cells; format: biochemical
Method: (§6) Nevertheless, after two subsequent incubations with LDL at 100 μg/ml for 24 hours each, 30-45% of the incorporated radioactivity was still associated with the cells. […] Thus, cells enriched in probucol, also released the antioxidant into the medium which may offer additional protection against oxidation. The rate of release of probucol from cells was not followed in these studies.

macrophages = experiment: Uptake of ^14 C-labeled water-soluble derivative by macrophages; format: cell-based, mouse; details: for Cell associated ^14 C-radioactivity: 3 hours at 37° C.
Method: as §5

endothelial cells [5] = experiment: Uptake, retention and release of probucol by endothelial cells incubated with ^14 C-labeled diglutaryl probucol; format: cell-based
Method: as §6

[6] = test system: LDL incubated with mouse peritoneal macrophages; experiment: Macrophage degradation of LDL previously incubated with pretreated macrophages (biological modification); format: cell-based
Method: as §2, §3, §4

[7] = Hydrolysis to free probucol; format: physicochemical
Source text: A particularly preferred embodiment of the present invention is a class of dicarboxylic acid esters of probucol compounds which can be dissolved as sodium or potassium salts.
as §1

[8] = test system: LDL incubated with endothelial cells (EC); experiment: Macrophage degradation of LDL previously incubated with pretreated endothelial cells (biological modification); format: cell-based; details: Set A, 3 hours at 37° C., LDL 24 hours
Method: as §4

[9] = test system: LDL incubated with endothelial cells; experiment: Oxidation of LDL recovered from the medium of diglutaryl probucol-pretreated endothelial cells; format: cell-based; details: endothelial cells preincubated with 25 nmol for 3 hours
Method: as §6

LDL [10] = experiment: Inhibition of oxidative modification of LDL, compound present during 24 hour incubation; format: cell-based
[11] = cited from earlier work
endothelial cells [12] = details: cited from earlier work
[13] = test system: LDL receptor-deficient rabbits; details: cited from earlier work
rat = details: given orally for some time before tying off a renal artery; cited from earlier work
LDL [14] = details: cited from earlier work
[15] = Set B, macrophages pretreated with 10 μM, 3 hours at 37° C., LDL 24 hours
[16] = Set B, macrophages pretreated with 20 μM, 3 hours at 37° C., LDL 24 hours
[17] = Set B, macrophages pretreated with 30 μM, 3 hours at 37° C., LDL 24 hours
[18] = macrophages pretreated with 500 nmol/ml probucol in ethanol, 48 hours, then LDL
[19] = EC pretreated with 100 μM (probucol in ethanol)

Solubility in organic solvents (Solubility; acid form): soluble in organic solvents
Labeled derivative going into solution (Solubility; as the sodium salt): More than 96%
Cell associated ^14 C-radioactivity (endothelial cells [2]): 1.9 ± 0.14 nmol
Cell associated radioactivity in the form of the precursor, probucol diglutarate (macrophages; at 60 minutes): about half
Cell associated ^14 C-radioactivity (macrophages; macrophages, 5 nmol added): 2.5 nmol
Cell associated ^14 C-radioactivity (macrophages; macrophages, 10 nmol added): 3.7 nmol
Cell associated ^14 C-radioactivity (macrophages; macrophages, 15 nmol added): 4.2 nmol
Cell associated ^14 C-radioactivity (macrophages; macrophages, 20 nmol added): 5.2 nmol
Cell associated ^14 C-radioactivity (macrophages; macrophages, 25 nmol added): 6.5 nmol
Added radioactivity associated with the cells (macrophages; macrophages, after 2 hours): 25-30%
Incorporated radioactivity still associated with the cells (endothelial cells [5]; 50-200 nmol, after two subsequent incubations with LDL at 100 μg/ml for 24 hours each): 30-45%
Hydrolysis in the course of incubation ([7]; 24 hour incubation, medium): almost completely hydrolyzed
Hydrolysis in aqueous solution ([7]; sodium salt in aqueous solution): slow hydrolysis
SMILES: CC(C)(Sc1cc(C(C)(C)C)c(OC(=O)CCCC(=O)O)c(C(C)(C)C)c1)Sc1cc(C(C)(C)C)c(OC(=O)CCCC(=O)O)c(C(C)(C)C)c1 [diglutaryl probucol, probucol diglutarate]
Solubility in sodium bicarbonate solution (Solubility; sodium bicarbonate solution, after removal of organic solvent): can be dissolved in sodium bicarbonate solution
TBARS [1, 15]: 5.3 nmol/mg protein
TBARS [1, 16]: 4.1 nmol/mg protein
TBARS [1, 17]: 3.3 nmol/mg protein
Inhibition of LDL modification by pretreated cells ([1]; concentrations as low as 10 μM, 3 hours pretreatment): inhibited the modification completely
TBARS ([3]; EC pretreated with 25 μM): 12.1 nmol/mg protein
TBARS ([3]; EC pretreated with 50 μM): 6.5 nmol/mg protein
Modification of recovered LDL upon subsequent incubation with 5 μM copper (LDL [4]; endothelial cells preincubated with 25 nmol for 3 hours): readily modified
Modification of recovered LDL upon subsequent incubation with 5 μM copper (LDL [4]; endothelial cells preincubated with 50-200 nmol): resistant to modification
Amount associated with the cells (macrophages; macrophages, after 2 hours): 2.5-6.5 nmol of probucol/~40 μg of cell protein
Release of free probucol into the medium (endothelial cells [5]; endothelial cells incubated with 50-200 nmol, 24 hour incubation after washings): considerable release of free probucol into the medium
Macrophage degradation [6, 15]: 2.2 μg/5 h per mg cell protein
Macrophage degradation [6, 16]: 1.6 μg/5 h per mg cell protein
Macrophage degradation [6, 17]: 1.4 μg/5 h per mg cell protein
Macrophage degradation ([8]; EC pretreated with 25 μM): 1.5 μg/5 h per mg cell protein
Macrophage degradation ([8]; EC pretreated with 50 μM): 1.3 μg/5 h per mg cell protein
Oxidation of LDL recovered from the medium [9]: absence of oxidation
inhibition at 2.5 µM (LDL [10]): > 50%

Solubility in medium (Solubility; 500 nmol/ml added in ethanol, medium grossly milky): very limited solubility
Probucol released into the medium (endothelial cells [5]; 24 hour incubation with LDL, 50-200 nmol diglutaryl probucol): about 7 nmol
Probucol incorporated into the cells (endothelial cells [5]; endothelial cells, 50-200 nmol diglutaryl probucol): more than 15 nmol
SMILES: CC(C)(Sc1cc(C(C)(C)C)c(O)c(C(C)(C)C)c1)Sc1cc(C(C)(C)C)c(O)c(C(C)(C)C)c1 [probucol, 4,4'-(isopropylidenedithio) bis(2,6-di-tert-butylphenol), reference compound]
LDL modification by cells as compared to control cells not pretreated ([1]; cells preincubated with probucol 500 nmol/ml): modified LDL poorly as compared to control cells
TBARS [1, 18]: 11.2 nmol/mg protein
TBARS [3, 19]: 42.5 nmol/mg protein
Solubility in lipid [11]: highly lipid soluble
Solubility in water ([11]; water): almost insoluble in water
Incorporation into endothelial cells (endothelial cells [12]; 50 μM probucol, 24 h): less than 1 μg of probucol/10^6 cells
Rate of entrance into cells in culture (endothelial cells [12]; cells in culture): slow
Macrophage degradation [6, 18]: 2.1 μg/5 h per mg cell protein
Progression of atherosclerosis [13]: slow the progression of atherosclerosis
Post-perfusion injury in the kidney (rat): can limit the post-perfusion injury in the kidney
Macrophage degradation [8, 19]: 6.4 μg/5 h per mg cell protein
Oxidative modification of LDL (LDL [14]): block oxidative modification of LDL
